This assay addresses EGFR^T790M (Homo sapiens, UniProt P00533, T790M). Nature of the assay: EGFR-TK assay kit / ADP-Glo kinase assay. The conditions noted are these: tested in triplicate. Format: biochemical.

Molecules are shown by their SMILES. Where “and” joins values, the source holds several entries; their conditions need not be identical. Equal values may be shown once.

For orientation: IC50 means the concentration needed to halve the response being measured.

Sequence of EGFR^T790M (P00533 25-1210 T790M): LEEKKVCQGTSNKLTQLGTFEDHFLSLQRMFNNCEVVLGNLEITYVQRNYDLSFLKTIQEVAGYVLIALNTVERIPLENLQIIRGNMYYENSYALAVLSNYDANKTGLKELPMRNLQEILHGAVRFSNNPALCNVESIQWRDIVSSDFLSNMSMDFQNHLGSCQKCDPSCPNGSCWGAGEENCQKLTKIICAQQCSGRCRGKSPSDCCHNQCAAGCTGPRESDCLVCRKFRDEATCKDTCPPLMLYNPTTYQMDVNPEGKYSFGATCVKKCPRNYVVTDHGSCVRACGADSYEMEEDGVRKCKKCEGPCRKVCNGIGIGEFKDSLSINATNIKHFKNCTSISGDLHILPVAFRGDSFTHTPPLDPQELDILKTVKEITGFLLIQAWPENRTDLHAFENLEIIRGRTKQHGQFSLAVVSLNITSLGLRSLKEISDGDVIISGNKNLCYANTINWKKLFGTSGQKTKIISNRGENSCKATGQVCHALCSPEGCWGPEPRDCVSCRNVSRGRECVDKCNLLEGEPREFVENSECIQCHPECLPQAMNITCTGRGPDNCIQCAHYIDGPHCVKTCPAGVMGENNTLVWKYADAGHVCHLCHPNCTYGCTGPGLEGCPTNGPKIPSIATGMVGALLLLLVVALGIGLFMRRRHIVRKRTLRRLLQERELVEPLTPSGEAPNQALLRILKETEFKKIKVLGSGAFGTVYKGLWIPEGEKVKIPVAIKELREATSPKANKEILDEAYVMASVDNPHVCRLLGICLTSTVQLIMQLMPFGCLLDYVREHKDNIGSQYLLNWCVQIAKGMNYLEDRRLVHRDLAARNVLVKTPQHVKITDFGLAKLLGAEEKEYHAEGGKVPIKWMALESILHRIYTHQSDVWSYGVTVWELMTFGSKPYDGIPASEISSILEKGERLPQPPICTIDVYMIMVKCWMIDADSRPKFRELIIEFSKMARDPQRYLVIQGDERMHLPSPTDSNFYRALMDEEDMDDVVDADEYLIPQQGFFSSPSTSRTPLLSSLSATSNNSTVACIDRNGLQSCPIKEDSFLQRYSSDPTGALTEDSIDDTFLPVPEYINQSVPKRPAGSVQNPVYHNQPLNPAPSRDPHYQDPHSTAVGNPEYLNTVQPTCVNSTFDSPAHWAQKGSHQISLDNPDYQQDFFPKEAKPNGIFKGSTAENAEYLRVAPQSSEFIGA

As to `O=c1nc(NCc2ccccc2Cl)[nH]c2ccc(Oc3ccccc3)cc12` [Compound 8b, 2-((2-Chlorobenzyl)amino)-6-phenoxyquinazolin-4(1H)-one], the IC50 was 0.37 nM and 1.37 nM.

The values above are taken from publication PMC9191221 (Iranian Journal of Pharmaceutical Research : IJPR, 2022).
